Reference: the NIST ThermoML archive (doi:10.1021/acs.jced.8b01095)

Assay: xn = mol fraction of the nth substance listed
Conditions: Liquid; for viscosity: 2 kPa, Falling or rolling sphere viscometry; for speed of sound / mass density: 100 kPa; for speed of sound: Single path-length method; for mass density: Vibrating tube method

CNc1ccccc1 [N-methylaniline] + CCCC[n+]1ccn(C)c1.O=S(=O)([N-]S(=O)(=O)C(F)(F)F)C(F)(F)F
Conditions	mass density [kg/m3]	speed of sound [m/s]	viscosity [mPa·s]
298.15 K, x2 = 0	982.7	1564.5	1.94
298.15 K, x2 = 0.0958	1085.92	1478.4	3.78
298.15 K, x2 = 0.2004	1171.17	1416.5	7.41
298.15 K, x2 = 0.3061	1237.44	1372.1	10.89
298.15 K, x2 = 0.4074	1287.31	1337.5	15.38
298.15 K, x2 = 0.4939	1321.9	1312.1	19.38
298.15 K, x2 = 0.5905	1352.65	1286.8	23.54
298.15 K, x2 = 0.6834	1377.01	1267.9	28.71
298.15 K, x2 = 0.7988	1402.4	1250.4	35.25
298.15 K, x2 = 0.8751	1415.81	1241	40.87
303.15 K, x2 = 0	978.59	1546.1	1.73
303.15 K, x2 = 0.0958	1081.63	1462.9	3.32
303.15 K, x2 = 0.2004	1166.89	1402.2	6.34
303.15 K, x2 = 0.3061	1233.05	1358.7	9.2
303.15 K, x2 = 0.4074	1282.85	1324.7	12.87
303.15 K, x2 = 0.4939	1317.38	1299.7	16.31
303.15 K, x2 = 0.5905	1348.07	1275.1	19.68
303.15 K, x2 = 0.6834	1372.38	1256.5	23.79
303.15 K, x2 = 0.7988	1397.7	1239.1	29.03
303.15 K, x2 = 0.8751	1411.09	1229.8	33.45
308.15 K, x2 = 0	974.47	1528.3	1.55
308.15 K, x2 = 0.0958	1077.34	1447.9	2.93
308.15 K, x2 = 0.2004	1162.61	1388	5.47
308.15 K, x2 = 0.3061	1228.67	1345.4	7.87
308.15 K, x2 = 0.4074	1278.4	1312.1	10.91
308.15 K, x2 = 0.4939	1312.87	1287.6	13.85
308.15 K, x2 = 0.5905	1343.49	1263.3	16.65
308.15 K, x2 = 0.6834	1367.74	1245	20
308.15 K, x2 = 0.7988	1393.02	1228.1	24.27
308.15 K, x2 = 0.8751	1406.37	1218.9	27.84
313.15 K, x2 = 0	970.36	1511.5	1.4
313.15 K, x2 = 0.0958	1073.05	1433.7	2.61
313.15 K, x2 = 0.2004	1158.33	1373.8	4.76
313.15 K, x2 = 0.3061	1224.28	1332.5	6.8
313.15 K, x2 = 0.4074	1273.93	1299.9	9.36
313.15 K, x2 = 0.4939	1308.35	1275.7	11.86
313.15 K, x2 = 0.5905	1338.91	1251.8	14.24
313.15 K, x2 = 0.6834	1363.11	1233.8	17.04
313.15 K, x2 = 0.7988	1388.31	1217.1	20.57
313.15 K, x2 = 0.8751	1401.64	1208.1	23.51
318.15 K, x2 = 0	966.24	1492.8	1.27
318.15 K, x2 = 0.0958	1068.75	1417.6	2.34
318.15 K, x2 = 0.2004	1154.04	1359.9	4.17
318.15 K, x2 = 0.3061	1219.9	1319.4	5.94
318.15 K, x2 = 0.4074	1269.47	1287.4	8.12
318.15 K, x2 = 0.4939	1303.83	1263.6	10.24
318.15 K, x2 = 0.5905	1334.33	1240	12.3
318.15 K, x2 = 0.6834	1358.47	1222.4	14.69
318.15 K, x2 = 0.7988	1383.61	1206.1	17.64
318.15 K, x2 = 0.8751	1396.92	1197.1	20.12
323.15 K, x2 = 0	962.13	1476.2	1.16
323.15 K, x2 = 0.0958	1064.46	1403.2	2.11
323.15 K, x2 = 0.2004	1149.76	1346.5	3.68
323.15 K, x2 = 0.3061	1215.52	1306.7	5.23
323.15 K, x2 = 0.4074	1265	1275.5	7.1
323.15 K, x2 = 0.4939	1299.32	1252	8.9
323.15 K, x2 = 0.5905	1329.74	1228.6	10.72
323.15 K, x2 = 0.6834	1353.84	1211.5	12.79
323.15 K, x2 = 0.7988	1378.91	1195.2	15.29
323.15 K, x2 = 0.8751	1392.22	1186.4	17.41

CNc1ccccc1 [N-methylaniline] + CCCCn1cc[n+](C)c1.F[P-](F)(F)(F)(F)F
Conditions	mass density [kg/m3]	speed of sound [m/s]	viscosity [mPa·s]
298.15 K, x2 = 0	982.7	1564.5	1.94
298.15 K, x2 = 0.1076	1064.1	1558.7	5.42
298.15 K, x2 = 0.2146	1128.52	1549.8	11.47
298.15 K, x2 = 0.3053	1174.31	1538.2	22.49
298.15 K, x2 = 0.3985	1214.23	1516.1	37.19
298.15 K, x2 = 0.4805	1243.22	1497.1	53.52
298.15 K, x2 = 0.5766	1272.38	1481.9	71.45
298.15 K, x2 = 0.6793	1299.48	1468.8	95.21
298.15 K, x2 = 0.7871	1325.04	1457.9	126.78
298.15 K, x2 = 0.9009	1348.44	1447.2	187.23
303.15 K, x2 = 0	978.59	1546.1	1.73
303.15 K, x2 = 0.1076	1060.11	1542.2	4.31
303.15 K, x2 = 0.2146	1124.54	1534.3	9.24
303.15 K, x2 = 0.3053	1170.33	1523.4	16.65
303.15 K, x2 = 0.3985	1210.27	1502.3	27.2
303.15 K, x2 = 0.4805	1239.24	1484.1	39.53
303.15 K, x2 = 0.5766	1268.37	1469.4	53.54
303.15 K, x2 = 0.6793	1295.43	1456.7	74.21
303.15 K, x2 = 0.7871	1320.94	1445.9	96.09
303.15 K, x2 = 0.9009	1344.33	1435.4	140.54
308.15 K, x2 = 0	974.47	1528.3	1.55
308.15 K, x2 = 0.1076	1056.11	1525.9	3.52
308.15 K, x2 = 0.2146	1120.57	1518.9	7.54
308.15 K, x2 = 0.3053	1166.34	1508.8	12.57
308.15 K, x2 = 0.3985	1206.32	1488.9	20.33
308.15 K, x2 = 0.4805	1235.26	1471.1	29.79
308.15 K, x2 = 0.5766	1264.35	1456.7	40.88
308.15 K, x2 = 0.6793	1291.38	1444.4	53.97
308.15 K, x2 = 0.7871	1316.84	1433.9	72.45
308.15 K, x2 = 0.9009	1340.21	1423.5	107.54
313.15 K, x2 = 0	970.36	1511.5	1.4
313.15 K, x2 = 0.1076	1052.12	1506.7	2.95
313.15 K, x2 = 0.2146	1116.59	1500.8	6.01
313.15 K, x2 = 0.3053	1162.35	1492.6	9.66
313.15 K, x2 = 0.3985	1202.36	1475.5	15.49
313.15 K, x2 = 0.4805	1231.27	1458	22.87
313.15 K, x2 = 0.5766	1260.34	1444.2	31.76
313.15 K, x2 = 0.6793	1287.33	1432.3	42.71
313.15 K, x2 = 0.7871	1312.75	1422.2	57.32
313.15 K, x2 = 0.9009	1336.1	1411.9	83.73
318.15 K, x2 = 0	966.24	1492.8	1.27
318.15 K, x2 = 0.1076	1048.13	1491.1	2.5
318.15 K, x2 = 0.2146	1112.61	1488.2	5
318.15 K, x2 = 0.3053	1158.36	1479.8	7.84
318.15 K, x2 = 0.3985	1198.4	1462.1	12.02
318.15 K, x2 = 0.4805	1227.29	1445.1	17.73
318.15 K, x2 = 0.5766	1256.33	1431.8	25.05
318.15 K, x2 = 0.6793	1283.28	1420.3	34.26
318.15 K, x2 = 0.7871	1308.65	1410.4	46.02
318.15 K, x2 = 0.9009	1331.99	1400.5	66.23
323.15 K, x2 = 0	962.13	1476.2	1.16
323.15 K, x2 = 0.1076	1044.13	1473.9	2.07
323.15 K, x2 = 0.2146	1108.64	1471.7	4.02
323.15 K, x2 = 0.3053	1154.38	1466.1	6.32
323.15 K, x2 = 0.3985	1194.44	1448.8	9.48
323.15 K, x2 = 0.4805	1223.3	1432.3	13.62
323.15 K, x2 = 0.5766	1252.31	1419.6	19.75
323.15 K, x2 = 0.6793	1279.23	1408.4	27.82
323.15 K, x2 = 0.7871	1304.56	1398.9	37.45
323.15 K, x2 = 0.9009	1327.88	1389.2	53.14
